Assay results taken from patent US20110039783A1, “PEPTIDE HAVING HYPOTENSIVE ACTIVITY” (DAIICHI SANKYO COMPANY LIMITED, priority 2007, published 2011).
Where no end group is shown, it is not given here. [ ]: non-standard residue; d: D form. Cha = N[C@@H](CC1CCCCC1)C(=O)O

Legend:
[1] = tested on: blood pressure of awake Sprague-Dawley IGS male rats; assay: Hypotensive activity on awake rats; type: in vivo, rat; parameters: key to Hypotensive activity (dose/rat) 10 nmol / Hypotensive activity (dose/rat) 30 nmol: Extremely strong activity (+++): A decrease in systolic blood pressure is 30 mmHg or more, and the time required for recovery is 5 minutes or more.; Strong activity (++): A decrease in systolic blood pressure is 20 mmHg or more and less than 30 mmHg, or the time required for recovery is less than 5 minutes.; Activity observed (+): A decrease in systolic blood pressure is less than 20 mmHg.; Activity not observed (−)
Method: 50 mg/kg pentobarbital sodium was intraperitoneally administered to 8- to 10-week-old Sprague-Dawley IGS male rats (Charles River Laboratories Japan, Inc.) for anesthesia. Thereafter, a jugular vein cannula (Silascon 0.5-1.0) was inserted into each rat for use in peptide administration, and a carotid artery cannula (PE50) was inserted into each rat for use in the measurement of blood pressure. At least 3 hours after the surgery, it was confirmed that the rats were awoken from the anesthesia based on general conditions such as the posture, respiration, and the like of the rats. Thereafter, the rats were subjected to the experiment.
The carotid artery cannula was connected with a pressure transducer (PE23XL; manufactured by Nihon Kohden Corporation), and an apparatus formed by incorporating a blood pressure measurement unit (AP-641G; manufactured by Nihon Kohden Corporation) and an instantaneous heart rate measurement unit (AT-601G; manufactured by Nihon Kohden Corporation) into a multi-purpose preamplifier (RP-6004; manufactured by Nihon Kohden Corporation) was used to record the blood pressure and heart rate of each rat. The blood pressure was calibrated using a mercury manometer included in a stand-type electromanometer (MP-25S; manufactured by Nihon Kohden Corporation). The recording paper was adjusted, such that 20 mm or 40 mm on the recording paper corresponded to 100 mmHg. A solvent in which each peptide had been dissolved was used as a negative control in blood pressure fluctuation.
Each peptide was dissolved in a concentration of 1 mM in a 5% mannitol solution to prepare a peptide solution. Thereafter, depending on dose, it was diluted with a 5% mannitol solution. In the case of the dose of 10 nmol/rat, a 1 mM peptide solution was 30 times diluted, and 300 μL of the diluted solution was administered. In the case of the dose of 30 nmol/rat, a 1 mM peptide solution was 10 times diluted, and 300 μl of the diluted solution was administered. In the case of the dose of 100 nmol/rat, a 1 mM peptide solution was 3 times diluted, and 300 μL of the diluted solution was administered. Each peptide was intravenously administered via the jugular vein cannula, and the systolic blood pressure, diastolic blood pressure, and heart rate were then measured.
The definition of the strength of hypotensive activity was the same as that of Example 3.

[2] = tested on: blood pressure of anesthetized Sprague-Dawley IGS male rats; assay: Hypotensive activity in anesthetized rats, invasive blood pressure measurement after intravenous administration; type: in vivo, rat; details: for Hypotensive activity (dose/rat) 10 nmol / Hypotensive activity (dose/rat) 30 nmol / Hypotensive activity (dose/rat) 100 nmol: anesthetized rats, intravenous; for Hypotensive activity (dose/rat) 10 nmol: 10 nmol/rat; for Hypotensive activity (dose/rat) 30 nmol: 30 nmol/rat; for Hypotensive activity (dose/rat) 100 nmol: 100 nmol/rat
Method: 50 mg/kg pentobarbital sodium was intraperitoneally administered to 8- to 10-week-old Sprague-Dawley IGS male rats (Charles River Laboratories Japan, Inc.) for anesthesia. Thereafter, a tracheal cannula (PE 250), a femoral vein cannula (PE50), and a femoral artery cannula (PESO) were inserted into each rat. The femoral artery cannula was connected with a pressure transducer (PE23XL; manufactured by Nihon Kohden Corporation), and an apparatus formed by incorporating a blood pressure measurement unit (AP-641G; manufactured by Nihon Kohden Corporation) and an instantaneous heart rate measurement unit (AT-601G; manufactured by Nihon Kohden Corporation) into a multi-purpose preamplifier (RP-6004; manufactured by Nihon Kohden Corporation) was used to record the blood pressure and heart rate of each rat. The blood pressure was calibrated using a mercury manometer included in a stand-type electromanometer (MP-25S; manufactured by Nihon Kohden Corporation). The recording paper was adjusted, such that 10 mm or 20 mm on the recording paper corresponded to 100 mmHg.
Each peptide was dissolved in a concentration of 1 mM or 10 mM in a 0.1% acetic acid solution to prepare a peptide solution. Thereafter, depending on dose, it was diluted with a normal saline containing 0.1% bovine serum albumin (Fr.V). In the case of the dose of 10 nmol/rat, a 1 mM peptide solution was 10 times diluted, and 100 μl of the diluted solution was administered. In the case of the dose of 30 nmol/rat, a 1 mM peptide solution was 10 times diluted, and 300 μL, of the diluted solution was administered. In the case of the dose of 100 nmol/rat, a 10 mM peptide solution was 10 times diluted, and 100 μL of the diluted solution was administered. Each peptide was intravenously administered via the femoral vein cannula, and the systolic blood pressure, diastolic blood pressure, and heart rate were then measured.
Various HC021 derivative peptides were synthesized in accordance with Example 1, and such peptide was then administered to each rat at a dose of 10 nmol/rat, 30 nmol/rat, or 100 mol/rat by the method described in Example 2. Thereafter, the hypotensive activity of each derivative peptide was measured. […] The strength of such activity was determined using a median of activity in repeated experiments. In addition, in order to make a comparison among the activities of various derivative peptides, the strength of hypotensive activity was defined as follows.
Strength of Hypotensive Activity
Extremely strong activity (+++): A decrease in systolic blood pressure is 30 mmHg or more, and the time required for recovery is 5 minutes or more.
Strong activity (++): A decrease in systolic blood pressure is 20 mmHg or more and less than 30 mmHg, or the time required for recovery is less than 5 minutes.
Activity observed (+): A decrease in systolic blood pressure is less than 20 mmHg.
Activity not observed (−)
Various HC021 peptide sequence-substituted products were synthesized in accordance with Example 1, and their hypotensive activity was then measured according to the method of Example 3.

| Substance | Hypotensive activity (dose/rat) 30 nmol ([2]; Table 3) | Hypotensive activity (dose/rat) 10 nmol ([2]; Table 2) | Hypotensive activity (dose/rat) 30 nmol ([2]; Table 2) | further results |
| --- | --- | --- | --- | --- |
| ATLRNEDTWKPLSNPRNRELFFRSLQAYFK-amide [Compound 36] | − |  |  | hypotensive activity (in words) [1]: observed to have a hypotensive activity even on the awake rats; Hypotensive activity (dose/rat) 10 nmol ([1]; Table 4, intravenous, 10 nmol/rat): −; Hypotensive activity (dose/rat) 30 nmol ([1]; Table 4, intravenous, 30 nmol/rat): −; Hypotensive activity (dose/rat) 100 nmol ([1]; Table 4, intravenous, 100 nmol/rat): ++ (Strong activity (++): A decrease in systolic blood pressure is 20 mmHg or more and less than 30 mmHg, or the time required for recovery is less than 5 minutes.); Hypotensive activity (dose/rat) 10 nmol ([2]; Table 3): −; Hypotensive activity (dose/rat) 100 nmol ([2]; Table 3): +++ (Extremely strong activity (+++): A decrease in systolic blood pressure is 30 mmHg or more, and the time required for recovery is 5 minutes or more.) |
| LFFRRLQAYFKGRGLDLGTFPNPF-amide (LFFRRLQAYFKGRGLDLGTFPNPF-NH2) [Compound 28] |  | +++ (Extremely strong activity (+++): A decrease in systolic blood pressure is 30 mmHg or more, and the time required for recovery is 5 minutes or more.) |  |  |
| VQQRKESKKPPAKLQPRNRDLFFRRLQAYFK-amide (VQQRKESKKPPAKLQPRNRDLFFRRLQAYFK-NH2) [Compound 40] | ++ (Strong activity (++): A decrease in systolic blood pressure is 20 mmHg or more and less than 30 mmHg, or the time required for recovery is less than 5 minutes.) |  |  |  |
| RDLFFRRLQAYFK-amide (RDLFFRRLQAYFK-NH2) [Compound 16] |  | − | ++ (Strong activity (++): A decrease in systolic blood pressure is 20 mmHg or more and less than 30 mmHg, or the time required for recovery is less than 5 minutes.) | Hypotensive activity (dose/rat) 100 nmol ([2]; Table 2): +++ (Extremely strong activity (+++): A decrease in systolic blood pressure is 30 mmHg or more, and the time required for recovery is 5 minutes or more.); dose dependence of hypotensive activity ([2]; anesthetized rats, 10, 30, 100 nmol/rat): enhanced their hypotensive activity in a dose-dependent manner |
| NRDLFFRRLQAYAK-amide (NRDLFFRRLQAYAK-NH2) [Compound 42] | − |  |  | Hypotensive activity (dose/rat) 10 nmol ([2]; Table 3): −; Hypotensive activity (dose/rat) 100 nmol ([2]; Table 3): ++ (Strong activity (++): A decrease in systolic blood pressure is 20 mmHg or more and less than 30 mmHg, or the time required for recovery is less than 5 minutes.) |
| LFFRRLQAYF-amide (LFFRRLQAYF-NH2) [Compound 24] |  |  | ++ (Strong activity (++): A decrease in systolic blood pressure is 20 mmHg or more and less than 30 mmHg, or the time required for recovery is less than 5 minutes.) |  |
| LFFRRLQA(Cha)FK-amide (LFFRRLQA[Cha]FK-NH2; N-terminus assumed; SMILES CC(C)C[C@H](NC(=O)[C@H](CCCNC(=N)N)NC(=O)[C@H](CCCNC(=N)N)NC(=O)[C@H](Cc1ccccc1)NC(=O)[C@H](Cc1ccccc1)NC(=O)[C@@H](N)CC(C)C)C(=O)N[C@@H](CCC(N)=O)C(=O)N[C@@H](C)C(=O)N[C@@H](CC1CCCCC1)C(=O)N[C@@H](Cc1ccccc1)C(=O)N[C@@H](CCCCN)C(N)=O) [Compound 45] | +++ (Extremely strong activity (+++): A decrease in systolic blood pressure is 30 mmHg or more, and the time required for recovery is 5 minutes or more.) |  |  | Hypotensive activity (dose/rat) 10 nmol ([2]; Table 3): + (Activity observed (+): A decrease in systolic blood pressure is less than 20 mmHg.) |
| LFFRRLQA-amide (LFFRRLQA-NH2) [Compound 26] |  |  | − | Hypotensive activity (dose/rat) 100 nmol ([2]; Table 2): − |
| RLQAYFK-amide (RLQAYFK-NH2) [Compound 23] |  |  | − | Hypotensive activity (dose/rat) 100 nmol ([2]; Table 2): − |
| LFFRRLQAWFK-amide (LFFRRLQAWFK-NH2) [Compound 46] | − |  |  | Hypotensive activity (dose/rat) 10 nmol ([2]; Table 3): −; Hypotensive activity (dose/rat) 100 nmol ([2]; Table 3): + (Activity observed (+): A decrease in systolic blood pressure is less than 20 mmHg.) |
| GATVRNEDKWKPLNNPRNRDLFFRRLQAYFK-amide [Compound 7] |  | − | ++ (Strong activity (++): A decrease in systolic blood pressure is 20 mmHg or more and less than 30 mmHg, or the time required for recovery is less than 5 minutes.) |  |
| pyr-EDKWKPLNNPRNRDLFFRRLQAYFK-amide (not fully specified; N-terminal pyroglutamate, C-terminal amide) [Compound 33] |  | ++ (Strong activity (++): A decrease in systolic blood pressure is 20 mmHg or more and less than 30 mmHg, or the time required for recovery is less than 5 minutes.) |  |  |
| acetyl-NRDLFFRRLQAYFK-amide (Ac-NRDLFFRRLQAYFK-NH2) [Compound 32] |  |  | ++ (Strong activity (++): A decrease in systolic blood pressure is 20 mmHg or more and less than 30 mmHg, or the time required for recovery is less than 5 minutes.) |  |
| NRDLFFRRLQAYFKG [Compound 11] |  | − | − | Hypotensive activity (dose/rat) 100 nmol ([2]; Table 2): + (Activity observed (+): A decrease in systolic blood pressure is less than 20 mmHg.) |
